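Exposure lasted 48 hours, with cells grown in 96-well plates and compounds tested at five concentrations. The concentration for 50% growth inhibition is given as GI50.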 The source made the active and inactive calls. No stated cut-off is given here; in the data, active = GI50 up to about 1.1 µM and inactive = higher.
How the values were obtained:
Assay in all cases: DTP human tumour cell line panel, 48 h
[1] = test system: M14
[2] = test system: SK-MEL-2
[3] = test system: Hs-578T
[4] = test system: SW-620
[5] = test system: NCI-H522
[6] = test system: COLO 205
[7] = test system: OVCAR-4
[8] = test system: PC-3
[9] = test system: CCRF-CEM
[10] = test system: T47D
[11] = test system: K562
[12] = test system: HOP-62
[13] = test system: SF-539
[14] = test system: HOP-92
[15] = test system: SK-MEL-5
[16] = test system: OVCAR-3
[17] = test system: HT-29
[18] = test system: EKVX
[19] = test system: MDA-N
[20] = test system: HCC 2998
[21] = test system: SNB-19
[22] = test system: NCI/ADR-RES
[23] = test system: UO-31
[24] = test system: MDA-MB-435
[25] = test system: HL-60
[26] = test system: A549
[27] = test system: CAKI-1
[28] = test system: SF-295
[29] = test system: A498
[30] = test system: HCT-15
[31] = test system: KM12
[32] = test system: RXF 393
[33] = test system: IGROV-1
[34] = test system: ACHN
[35] = test system: MOLT-4
[36] = test system: SF-268
[37] = test system: RPMI-8226
[38] = test system: NCI-H23
[39] = test system: OVCAR-5
[40] = test system: MCF7
[41] = test system: NCI-H460
[42] = test system: SK-MEL-28
[43] = test system: SN12C
[44] = test system: UACC-257
[45] = test system: TK-10
[46] = test system: SNB-75
[47] = test system: LOX IMVI
[48] = test system: DU-145
[49] = test system: NCI-H226
[50] = test system: 786-0
[51] = test system: HCT-116
[52] = test system: Malme-3M
[53] = test system: U-251
[54] = test system: MDA-MB-231
[55] = test system: OVCAR-8
[56] = test system: UACC-62
[57] = test system: SK-OV-3
[58] = test system: SR
[59] = test system: BT-549

Measured: GI50

C[C@]12CC[C@H](O)CC1=CC[C@@H]1[C@@H]2CC[C@]2(C)C(=O)[C@@H](N3CCOCC3)C[C@@H]12
inactive: [1] 78.5 µM | [2] > 100 µM | [3] 90.4 µM | [4] > 100 µM | [5] 23.6 µM | [6] > 100 µM | [7] > 100 µM | [8] > 100 µM | [9] 99.8 µM | [10] 31 µM | [11] 89.3 µM | [12] > 100 µM | [13] > 100 µM | [14] 50.5 µM | [15] 33.1 µM | [16] > 100 µM | [17] > 100 µM | [18] 40.6 µM | [19] > 100 µM | [20] > 100 µM | [21] > 100 µM | [22] 61.2 µM | [23] > 100 µM | [24] > 100 µM | [25] 47.1 µM | [26] > 100 µM | [27] 3.26 µM | [28] > 100 µM | [29] > 100 µM | [31] > 100 µM | [32] 36.9 µM | [33] > 100 µM | [34] > 100 µM | [35] 55.3 µM | [36] 48.4 µM | [37] 48.4 µM | [38] 57.8 µM | [39] > 100 µM | [40] > 100 µM | [41] > 100 µM | [42] > 100 µM | [43] > 100 µM | [44] > 100 µM | [45] > 100 µM | [46] 30.6 µM | [47] > 100 µM | [48] > 100 µM | [49] > 100 µM | [50] > 100 µM | [51] > 100 µM | [52] > 100 µM | [53] 89.3 µM | [54] > 100 µM | [55] 47.1 µM | [56] 76.4 µM | [57] > 100 µM | [58] 44.2 µM
> 100 µM: [30]

C[n+]1cn(-c2ccc([N+](=O)[O-])cn2)c2ccccc21
inactive: [1] > 100 µM | [2] > 100 µM | [3] > 100 µM | [4] > 100 µM | [6] > 100 µM | [7] > 100 µM | [8] > 100 µM | [9] > 100 µM | [10] > 100 µM | [11] > 100 µM | [12] > 100 µM | [13] > 100 µM | [14] > 100 µM | [15] > 100 µM | [16] > 100 µM | [17] > 100 µM | [18] > 100 µM | [20] > 100 µM | [21] > 100 µM | [59] > 100 µM | [22] > 100 µM | [23] > 100 µM | [24] > 100 µM | [25] > 100 µM | [26] > 100 µM | [27] > 100 µM | [28] > 100 µM | [29] > 100 µM | [31] > 100 µM | [32] > 100 µM | [33] > 100 µM | [34] > 100 µM | [35] > 100 µM | [36] > 100 µM | [37] > 100 µM | [38] > 100 µM | [39] > 100 µM | [40] > 100 µM | [41] > 100 µM | [42] > 100 µM | [44] > 100 µM | [45] > 100 µM | [46] > 100 µM | [47] > 100 µM | [48] > 100 µM | [49] > 100 µM | [50] > 100 µM | [51] > 100 µM | [52] > 100 µM | [53] > 100 µM | [54] > 100 µM | [55] > 100 µM | [56] > 100 µM | [57] > 100 µM | [58] > 100 µM
> 100 µM: [30]

O=C1CC(c2ccccc2)Oc2ccccc21 (stereo unspecified) [FLAVANONE]
26.1 µM: [30]
inactive: [1] 51.9 µM | [2] 30.1 µM | [3] 67.3 µM | [4] > 10 µM | [6] 33.6 µM | [7] 66.1 µM | [8] 38.5 µM | [9] 24.2 µM | [10] 35.8 µM | [11] 12.6 µM | [12] 48.4 µM | [13] 21.8 µM | [14] 24.9 µM | [15] 25.1 µM | [17] 28 µM | [18] 38.9 µM | [20] 76.9 µM | [21] 23.1 µM | [59] 15.4 µM | [22] 34.9 µM | [23] 47.6 µM | [24] 31.9 µM | [25] 21.5 µM | [27] 48.3 µM | [28] 58.1 µM | [29] 30.3 µM | [31] 35.7 µM | [32] 36.2 µM | [33] 23.4 µM | [34] 47.6 µM | [35] 13.7 µM | [36] 64.7 µM | [37] 17.1 µM | [38] 15.9 µM | [40] 37.8 µM | [41] 32.1 µM | [42] > 100 µM | [44] 77.3 µM | [45] 76.4 µM | [46] 63.4 µM | [47] 26.5 µM | [48] 67.6 µM | [49] 32.4 µM | [50] 29.3 µM | [51] 30.3 µM | [53] 38.6 µM | [54] 32.2 µM | [55] 48.9 µM | [56] 51.3 µM | [57] 84.1 µM | [58] 24 µM

Reference: ChEMBL document CHEMBL1201862, “PubChem BioAssay data set” (2004)
